# In patent US20200299329A1, “SYNTHETIC PEPTIDES, PHARMACEUTICAL COMPOSITIONS COMPRISING THE SAME, AND USES THEREOF IN TREATING THROMBOEMBOLISM-RELATED DISEASES” (Academia Sinica, priority 2019, published 2020):
# Experiments:
# human thrombus = assay: Screening of thrombus-binding activity of phages by ELISA; conditions: for dose-dependent thrombus-specific binding by ELISA: BSA binding as negative control, FIG. 1C/1D; for binding affinity to human thrombus (ELISA, absorption at 450 nm): screening of 72 phage clones from the fifth round of biopanning, FIG. 1B
# Protocol: A human thrombus was isolated and collected from a cadaver about 20 years ago in a course of fresh cadaver dissection and partial thrombus was grounded to powder and then incubated with 2×10^11 phages in 1% BSA in PBS at 4° C. for 1 hour. After washing with PBS, the bound phages were eluted from the thrombus tissue and amplified using E. coli for subsequent rounds of selection. The eluted and amplified phages were titrated on lysogeny broth (LB) medium plates containing isopropyl β-D-1-thiogalactopyranoside (IPTG) and X-Gal (5-bromo-4-chloro-3-indolyl-D-galactoside). The biopanning steps described above were repeated five times before phage clones were randomly selected for thrombus ELISA screening.
# The grinded human thrombus tissue or BSA in coating buffer was used to coat 96-well ELISA plates overnight. After blocking and washing, the selected phage clones were added and incubated for 1 hour at room temperature (RT). After washing with PBS, each well was probed with horseradish peroxidase (HRP)-conjugated mouse anti-M13 antibodies (1:2000 dilution) for 1 hour at RT. After repeating the wash step, the plates were developed with ELISA substrate solution. The reaction was terminated with 3N hydrochloric acid, and the absorbance of the colorimetric substrate was analyzed using a microplate reader at 450 nm.
# induced thrombus = assay: In vivo infrared fluorescence imaging of HILYTE FLUOR 750-conjugated protein at the thrombus; parameters: species or system mice; conditions: FIG. 5B
# Protocol: Fifty micrograms of tPA or targeting peptide-tPA fusion and 4 nM HILYTE FLUOR™ 750 were mixed for 45 minutes at RT to promote conjugation. The solution was dialyzed with a 3.5-kDa-cut-off membrane overnight at 4° C. Time-course fluorescence measurements were made in mice with thrombi after intravenous injection of HILYTE FLUOR™ 750-labeled tPA or targeting peptide-tPA fusion protein. Fluorescence images were captured using an imaging system. Accumulation of HILYTE FLUOR™ 750 in the thrombus was quantified by subtracting background florescence intensity.
# Fifty micrograms of thrombus affinity peptide-tPA was mixed with 4 nM HILYTE FLUOR™ 750 and incubated for 45 minutes at RT in the dark to promote the conjugation. Dialysis was performed with a 3.5-kDa-cut-off membrane overnight at 4° C. to remove excess dye. A time-course of infrared fluorescence images were acquired after intravenous injection of HILYTE FLUOR™ 750-conjugated fusion protein or tPA. Infrared fluorescence images of HILYTE FLUOR™ 750-conjugated protein were captured in living using an imaging system. Accumulation of HILYTE FLUOR™ 750 fluorescence signal in the induced thrombus was quantified and analyzed by software.
Substance,dose-dependent thrombus-specific binding by ELISA (human thrombus),"binding affinity to human thrombus (ELISA, absorption at 450 nm) (human thrombus)","time after injection at which accumulation at the induced thrombus was seen (induced thrombus; dye-conjugated protein, i.v., mice with induced thrombus) [min]",decrease of fluorescence intensity at the induced thrombus (induced thrombus; in 1 hour after i.v. injection) [%]
FQNEWFHNFLHD [PC30],best thrombus-specific binding,relatively high binding affinity,–,–
LQKNPFDLVQIL [PC66],best thrombus-specific binding,relatively high binding affinity,–,–
TEANLSSWVFAR [PC39],best thrombus-specific binding,relatively high binding affinity,–,–
"tPA: human recombinant tissue plasminogen activator without thrombus binding peptide, used as control",–,–,≤ 5,50
